Tests used:
[1] = target: T1, α2δ-subunit of a calcium channel (Sus scrofa, UniProt A0A287BIN3); test: radioligand binding assay using [3H]-gabapentin; settings: α2δ-subunit derived from porcine brain tissue
T1 construct: the α2δ-subunit derived from porcine brain tissue was used; from tissue; host or cells: porcine brain tissue
Description: The ability of compounds of the present invention to bind to the α2δ-subunit of a calcium channel can be determined using the following binding assay.
The radioligand binding assay using [^3H]-gabapentin and the α2δ-subunit derived from porcine brain tissue was used. See Nicolas S. Gee et al., “The novel anticonvulsant drug, gabapentin (Neurontin), binds to the α2 subunit of a calcium channel,” J. Biol. Chem. 271 (10):5768-76 (1996). Compounds of the invention bind with nanomolar to micromolar affinity for the α2δ protein.

T1 sequence (A0A287BIN3 25-1109): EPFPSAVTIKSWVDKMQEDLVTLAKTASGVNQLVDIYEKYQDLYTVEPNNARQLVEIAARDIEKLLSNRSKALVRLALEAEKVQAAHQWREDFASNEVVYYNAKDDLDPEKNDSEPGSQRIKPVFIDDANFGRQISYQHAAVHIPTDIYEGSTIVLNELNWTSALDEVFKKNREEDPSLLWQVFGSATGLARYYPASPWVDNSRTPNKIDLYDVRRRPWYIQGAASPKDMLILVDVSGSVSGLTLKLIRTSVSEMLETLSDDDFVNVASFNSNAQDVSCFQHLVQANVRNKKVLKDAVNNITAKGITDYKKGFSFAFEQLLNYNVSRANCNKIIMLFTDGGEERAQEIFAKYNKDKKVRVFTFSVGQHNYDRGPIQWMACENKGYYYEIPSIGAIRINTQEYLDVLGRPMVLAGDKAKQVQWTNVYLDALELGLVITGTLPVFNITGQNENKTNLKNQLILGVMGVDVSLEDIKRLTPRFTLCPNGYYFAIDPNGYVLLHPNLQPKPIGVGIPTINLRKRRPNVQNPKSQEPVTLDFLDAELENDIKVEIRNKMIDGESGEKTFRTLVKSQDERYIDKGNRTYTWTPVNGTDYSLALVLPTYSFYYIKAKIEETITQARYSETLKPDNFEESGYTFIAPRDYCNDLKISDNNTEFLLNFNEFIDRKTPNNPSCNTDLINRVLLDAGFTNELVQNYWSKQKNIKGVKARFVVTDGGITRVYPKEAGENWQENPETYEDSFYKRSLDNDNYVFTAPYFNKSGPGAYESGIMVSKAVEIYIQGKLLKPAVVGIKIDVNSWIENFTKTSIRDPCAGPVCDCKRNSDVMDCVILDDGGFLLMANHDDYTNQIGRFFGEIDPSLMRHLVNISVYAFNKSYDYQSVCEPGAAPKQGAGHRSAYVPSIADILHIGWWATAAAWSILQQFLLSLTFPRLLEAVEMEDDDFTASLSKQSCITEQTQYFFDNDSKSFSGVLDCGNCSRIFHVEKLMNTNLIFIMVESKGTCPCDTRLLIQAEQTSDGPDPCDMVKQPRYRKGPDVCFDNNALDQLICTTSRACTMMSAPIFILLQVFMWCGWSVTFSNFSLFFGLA

melting point [°C]	SMILES	affinity to the α2δ protein [1] [nM]
215 to 217	CC[C@H](C)C[C@](C)(N)CC(=O)O	
	CC[C@@H](C)C[C@](C)(N)CC(=O)O [(3S,5R)-3-amino-3,5-dimethyl-heptanoic acid]	236
	CCC(CC)C[C@](C)(N)CC(=O)O [(S)-3-amino-5-ethyl-3-methyl-heptanoic acid]	149
	CCCCC(CC)CCC(CN)C(=O)O (stereo not shown) [2-aminomethyl-5-ethyl-nonanoic acid]	75
